# Source: US20090263354A1, “Compositions and siRNAs for inhibiting C/EBPbeta” (Yeda Research and Development Co., Ltd., priority 2006, published 2009)
# B1: FasL: Fas ligand, cytotoxic cytokine (protein, UniProt P48023 130-281, looked up)
# Tumor necrosis factor ligand …: QIGHPSPPPEKKELRKVAHLTGKSNSRSMPLEWEDTYGIVLLSGVKYKKGGLVINETGLYFVYSKVYFRGQSCNNLPLSHKVYMRNSKYPQDLVMMEGKMMSYCTTGQMWARSSYLGAVFNLTSADHLYVNVSELSLVNFEESQTFFGLYKL
# Columns and labels:
# p53 = experiment: Induction of cellular p53 by cell death inducers, immunoblotting; assay type: cell-based, human; settings: WISH cells; 24 h (TNFα plus IFN-γ 48 h)
# Experimental: The following experiment was carried out in order to confirm that the protective effect of C/EBPβ from cell death inducers is independent of the transfection process. Thus, B16 mouse melanoma cells, stably transfected with an inducible C/EBPβ expression vector (Clone F-10.9) were obtained from M. Revel and J. Chebath, Weizmann Institute of Science, Israel. Induction of C/EBPβ expression was triggered by addition of the antibiotic doxycycline (1 μg/ml, 24 h, Sigma) to the culture medium and was evaluated by both RT-PCR and immunoblotting. RT-PCR was performed as follows: F-10.9 cells (10^6) were harvested and total RNA was extracted by using the Rneasy® kit- from QIAGEN. cDNA was prepared by using random hexamers (Invitrogen) and M-MLV Reverse Transcriptase (Promega) according to the manufacturer's instructions. PCR was performed with the following primers: mouse C/EBPβ, 5′-[…] and 5′-[…]. Amplifications were done by initial denaturation (95° C., 4 min), 27 cycles of denaturation (95° C., 80 s), annealing (57° C., 60 s) and extension (72° C., 80 s), and final extension (72° C., 5 min). The resulting PCR products were resolved by agarose (1%) gel electrophoresis. […] For immunoblotting, cells were washed three times with ice-cold PBS and immediately frozen in liquid nitrogen. Cell pellets were re-suspended in four packed cell volumes of cytoplasmic buffer (10 mM Hepes, pH 7.9, 10 mM NaCl, 0.2 mM EDTA, 5% glycerol, 1.5 mM MgCl2, 1 mM DTT, 0.5 mM PMSF, 50 mM NaF, 0.1 mM Na3VO4, 2 mM EGTA, 10 mM Na2MoO4, 2 μg/ml each of leupeptin, pepstatin, and aprotinin). The suspension was freeze/thawn twice, incubated on ice for 20 min and then centrifuged (3,000×g, 10 min, 4° C.). The supernatant containing the proteins was collected and protein concentration was determined by a BCA Protein assay kit (Pierce), using BSA as a standard. Protein extracts (10 μg) were boiled in SDS/PAGE sample buffer containing 25 mM DTT and the supernatant was resolved by SDS/PAGE (10% acrylamide). The gel was then blotted onto a nitrocellulose membrane and proteins were detected with the indicated antibodies. Immune complexes were identified with a Super Signal detection kit (Pierce.).
# It was recently reported that C/EBPβ binds to p53 and inhibits its activity, part of which could be induction of apoptosis. We carried out several experiments to find out if the protective effect of C/EBPβ over-expression against apoptosis induced by cell death inducers involves inhibition of p53. Initially, we determined which of the cell death inducers used for induction of apoptosis elevates the level of cellular p53. For this purpose, WISH cells were treated with; etoposide (50 μM for 24 h); MG262 (0.1 μM, for 24 h); TNFα (100 ng/ml) plus IFN-γ (1000 IU/ml) for 48 h; doxorubicin (1.8 μM, for 24 h); vincristine (0.1 μg/ml, for 24 h); FasL (60 ng/ml, 24 h); tunicamycin (1 μg/ml, for 24 h) or ALLN (26 μM, for 24 h), and extracts of these cells were subjected to immunoblotting with anti p53 (mab dd1+1801, 1:40 from M. Oren, WIS) as described in Example 6.
# WISH cells = experiment: Protection of WISH cells from cell death by pre-incubation with IGF-1 or IL-6; assay type: cell-based, human
# Experimental: WISH cells were pre-incubated with IGF-1 (200 ng/ml) for the indicated times. Doxorubicin (2 μM, for 16 h) was then added. […] The same results were obtained when apoptosis was induced by MG262, TNF-α plus IFN-γ, and tunicamycin (data not shown).
# WISH Cells (30,000 cells/well) were pre incubated with 6.25, 12.5, 25, 50, 100, 200, 300, 400, 500, or 1000 IU/ml of IL-6 for 6 h and then 26 μM ALLN was added for 48 h.
molecule,measurement,setting,value
CC(C)C[C@H](NC(=O)[C@H](CC(C)C)NC(=O)[C@H](CC(C)C)NC(=O)OCc1ccccc1)B(O)O [MG262],induction of p53 (immunoblotting with anti p53),p53,extensive induction of p53
COc1cc([C@@H]2c3cc4c(cc3[C@@H](O[C@@H]3O[C@@H]5CO[C@@H](C)O[C@H]5[C@H](O)[C@H]3O)[C@H]3COC(=O)[C@H]23)OCO4)cc(OC)c1O [etoposide],induction of p53 (immunoblotting with anti p53),p53,did not induce p53
IL-6: cytokine IL-6,protection from apoptosis induced by ALLN,"WISH cells; IL-6 6.25-1000 IU/ml, 6 h before ALLN 26 μM, 48 h",did not protect
COc1cccc2c1C(=O)c1c(O)c3c(c(O)c1C2=O)C[C@@](O)(C(=O)CO)C[C@@H]3O[C@H]1C[C@H](N)[C@H](O)[C@H](C)O1 [doxorubicin],induction of p53 (immunoblotting with anti p53),p53,extensive induction of p53
IGF-1: growth factor IGF-1 added to the culture medium,protection of WISH cells from doxorubicin,"WISH cells; IGF-1 200 ng/ml pre-incubation, doxorubicin 2 μM, 16 h",did not protect
same,protection of WISH cells from other apoptosis inducers,"WISH cells; IGF-1, apoptosis induced by MG262, TNF-α plus IFN-γ, and tunicamycin, data not shown",same results
CC[C@]1(O)C[C@H]2CN(CCc3c([nH]c4ccccc34)[C@@](C(=O)OC)(c3cc4c(cc3OC)N(C=O)[C@H]3[C@@](O)(C(=O)OC)[C@H](OC(C)=O)[C@]5(CC)C=CCN6CC[C@]43[C@@H]65)C2)C1 [vincristine],induction of p53 (immunoblotting with anti p53),p53,did not induce p53
tunicamycin,induction of p53 (immunoblotting with anti p53),p53,did not induce p53
B1,induction of p53 (immunoblotting with anti p53),p53,did not induce p53
